Results from ChEMBL document CHEMBL3046446, “Structure and Acaricidal Activity of Pyrazolecarboxamides and Thiazole-5-carboxamides” (1994).

Legend:
Type in all cases: functional
Details in all cases: 120 h
Tetranychus urticae [1] = experiment: Acaricidal activity against Tetranychus urticae (two-spotted spider mite) in kidney bean leaf assessed as mortality at 200 ppm at 25 degC measured after 5 days
Tetranychus urticae [2] = experiment: Acaricidal activity against Tetranychus urticae (two-spotted spider mite) in kidney bean leaf assessed as mortality at 3.1 ppm at 25 degC measured after 5 days
Tetranychus urticae [3] = experiment: Acaricidal activity against Tetranychus urticae (two-spotted spider mite) in kidney bean leaf assessed as mortality at 500 ppm at 25 degC measured after 5 days
Tetranychus urticae [4] = experiment: Acaricidal activity against Tetranychus urticae (two-spotted spider mite) in kidney bean leaf assessed as mortality at 12.5 ppm at 25 degC measured after 5 days
Tetranychus urticae [5] = experiment: Acaricidal activity against Tetranychus urticae (two-spotted spider mite) in kidney bean leaf assessed as mortality at 50 ppm at 25 degC measured after 5 days

SMILES | mortality at 200 ppm (Tetranychus urticae [1]) | mortality at 3.1 ppm (Tetranychus urticae [2]) | mortality at 500 ppm (Tetranychus urticae [3]) | mortality at 12.5 ppm (Tetranychus urticae [4]) | mortality at 50 ppm (Tetranychus urticae [5])
Cc1nc(C)c(C(=O)NCc2ccc(C(C)(C)C)cc2)s1 | 100% | 0% | 100% | 0% | 100%
Cc1nn(C)cc1C(=O)NCc1ccc(C(C)(C)C)cc1 | 80% | 0% | 100% | 0% | 0%
Cc1cc(C(=O)NCc2ccc(C(C)(C)C)cc2)n(C)n1 | 100% | 0% | 100% | 30% | 100%
CCc1cc(C(=O)NCc2ccc(C(C)(C)C)cc2)n(C)n1 | 100% | 0% | 100% | 100% | 100%
CCc1nc(C)c(C(=O)N(C)Cc2ccc(C(C)(C)C)cc2)s1 | 100% | 0% | 100% | 30% | 100%
CCc1cc(C(=O)NCc2ccc(C(C)(C)C)cc2)nn1C | 0% | 0% | 0% | 0% | 0%
CCn1ncc(C(=O)NCc2ccc(C(C)(C)C)cc2)c1C | 0% | 0% | 0% | 0% | 0%
CCn1cc(C(=O)NCc2ccc(C(C)(C)C)cc2)c(C)n1 | 100% | 0% | 100% | 30% | 100%
Cc1ncsc1C(=O)NCc1ccc(C(C)(C)C)cc1 | 0% | 0% | 30% | 0% | 0%
CCn1nc(C)cc1C(=O)NCc1ccc(C(C)(C)C)cc1 | 0% | 0% | 0% | 0% | 0%
